We go through 15 molecules from ChEMBL document CHEMBL6134788, “Development of naphthalimide hydrazide derivatives as potent antibacterial agents against carbapenem-resistant A. baumannii” (RSC Med Chem, 2024).

Holding throughout (type): functional
Common to all, as to conditions: time 16-18 hrs, read-out: MIC100

In one experiment the test system is Escherichia coli. Nature of the experiment: Antibacterial activity against Escherichia coli ATCC 25922 assessed as inhibition of bacterial growth incubated for 16 to 18 hrs by CLSI protocol based method.
For another experiment, the system named is Acinetobacter baumannii. The experiment can be described thus: Antibacterial activity against carbapenem-resistant Acinetobacter baumannii BAA 1605 assessed as inhibition of bacterial growth incubated for 16 to 18 hrs by CLSI protocol based method.
The next experiment has as its system Klebsiella pneumoniae. The experiment can be described thus: Antibacterial activity against Klebsiella pneumoniae BAA 1705 assessed as inhibition of bacterial growth incubated for 16 to 18 hrs by CLSI protocol based method.
Another experiment deals with Staphylococcus aureus. The experiment can be described thus: Antibacterial activity against Staphylococcus aureus ATCC 29213 assessed as inhibition of bacterial growth incubated for 16 to 18 hrs by CLSI protocol based method.
In the next experiment the test system is Pseudomonas aeruginosa. Nature of the experiment: Antibacterial activity against Pseudomonas aeruginosa ATCC 27853 assessed as inhibition of bacterial growth incubated for 16 to 18 hrs by CLSI protocol based method.

SMILES strings stand for the structures. Values after ≈ are worked out from the molar mass of the structure shown. Bounds are passed on as bounds.

Consider `O=C(CCN1C(=O)c2cccc3c(Br)ccc(c23)C1=O)NNc1ccc(Br)cc1`, for which the MIC in the experiment on Escherichia coli was greater than 64 µg/mL; with Acinetobacter baumannii, 4 µg/mL (≈ 7.73 µM); in the experiment on Klebsiella pneumoniae, greater than 64 µg/mL; in the experiment on Staphylococcus aureus, greater than 64 µg/mL; in the experiment with Pseudomonas aeruginosa, greater than 64 µg/mL.

Take `O=C(NNc1ccccc1)[C@@H](Cc1ccccc1)N1C(=O)c2cccc3cccc(c23)C1=O`: the MIC is greater than 64 µg/mL with Escherichia coli; 8 µg/mL (≈ 18.4 µM) with Acinetobacter baumannii; greater than 64 µg/mL in the experiment with Klebsiella pneumoniae; greater than 64 µg/mL in the experiment with Staphylococcus aureus; greater than 64 µg/mL in the experiment on Pseudomonas aeruginosa.

As to `O=C(CCN1C(=O)c2cccc3cccc(c23)C1=O)NNc1ccccc1Cl`, the MIC with Escherichia coli, in the experiment on Acinetobacter baumannii, in the experiment on Klebsiella pneumoniae, in the experiment on Staphylococcus aureus and with Pseudomonas aeruginosa was greater than 64 µg/mL each time.

With `Cc1ccc(NNC(=O)CCN2C(=O)c3cccc4cccc(c34)C2=O)c(C)c1`, the MIC with Escherichia coli, in the experiment on Acinetobacter baumannii, in the experiment with Klebsiella pneumoniae, in the experiment on Staphylococcus aureus and with Pseudomonas aeruginosa was greater than 64 µg/mL each time.

Take `O=C(NNc1ccc(Br)cc1)[C@@H](Cc1ccccc1)N1C(=O)c2cccc3cccc(c23)C1=O`: the MIC is greater than 64 µg/mL with Escherichia coli; 8 µg/mL (≈ 15.6 µM) in the experiment on Acinetobacter baumannii; greater than 64 µg/mL in the experiment with Klebsiella pneumoniae; greater than 64 µg/mL in the experiment on Staphylococcus aureus; greater than 64 µg/mL in the experiment on Pseudomonas aeruginosa.

With `CO[C@H]1/C=C/O[C@@]2(C)Oc3c(C)c(O)c4c(O)c(c(/C=N/N5CCN(C)CC5)c(O)c4c3C2=O)NC(=O)/C(C)=C\C=C\[C@H](C)[C@H](O)[C@@H](C)[C@@H](O)[C@@H](C)[C@H](OC(C)=O)[C@@H]1C` [RIFAMPIN], the MIC in the experiment on Acinetobacter baumannii is 4 µg/mL (≈ 4.86 µM).

As for `N#Cc1ccc(NNC(=O)[C@@H](Cc2ccccc2)N2C(=O)c3cccc4cccc(c34)C2=O)cc1`, the MIC in the experiment with Escherichia coli is greater than 64 µg/mL; in the experiment with Acinetobacter baumannii, 16 µg/mL (≈ 34.7 µM); in the experiment on Klebsiella pneumoniae, greater than 64 µg/mL; in the experiment on Staphylococcus aureus, greater than 64 µg/mL; with Pseudomonas aeruginosa, greater than 64 µg/mL.

For the molecule `O=C(CCN1C(=O)c2cccc3cccc(c23)C1=O)NNc1ccc(Cl)cc1Cl`, the MIC in the experiment on Escherichia coli, in the experiment with Acinetobacter baumannii, in the experiment with Klebsiella pneumoniae, in the experiment with Staphylococcus aureus and in the experiment with Pseudomonas aeruginosa was greater than 64 µg/mL in each case.

Regarding `O=C(CCN1C(=O)c2cccc3c(Br)ccc(c23)C1=O)NNc1ccc(Cl)cc1`, the MIC in the experiment with Escherichia coli was greater than 64 µg/mL; with Acinetobacter baumannii, 4 µg/mL (≈ 8.46 µM); in the experiment on Klebsiella pneumoniae, greater than 64 µg/mL; with Staphylococcus aureus, greater than 64 µg/mL; in the experiment with Pseudomonas aeruginosa, greater than 64 µg/mL.

With `O=C(CCN1C(=O)c2cccc3cccc(c23)C1=O)NNc1ccccc1Br`, the MIC in the experiment with Escherichia coli, in the experiment with Acinetobacter baumannii, in the experiment with Klebsiella pneumoniae, with Staphylococcus aureus and in the experiment with Pseudomonas aeruginosa was greater than 64 µg/mL throughout.

As to `N#Cc1ccc(NNC(=O)CCN2C(=O)c3cccc4c(Br)ccc(c34)C2=O)cc1`, the MIC with Escherichia coli is greater than 64 µg/mL; in the experiment on Acinetobacter baumannii, 4 µg/mL (≈ 8.63 µM); in the experiment on Klebsiella pneumoniae, greater than 64 µg/mL; in the experiment on Staphylococcus aureus, greater than 64 µg/mL; in the experiment with Pseudomonas aeruginosa, greater than 64 µg/mL.

In the case of `NCC[C@H](O)C(=O)N[C@@H]1C[C@H](N)[C@@H](O[C@H]2O[C@H](CN)[C@@H](O)[C@H](O)[C@H]2O)[C@H](O)[C@H]1O[C@H]1O[C@H](CO)[C@@H](O)[C@H](N)[C@H]1O` [AMIKACIN], in the experiment with Acinetobacter baumannii, the MIC was found to be 4 µg/mL (≈ 6.83 µM).

In the case of `N#Cc1ccc(NNC(=O)CCCCCN2C(=O)c3cccc4cccc(c34)C2=O)cc1`, the MIC in the experiment on Escherichia coli, in the experiment on Acinetobacter baumannii, with Klebsiella pneumoniae, in the experiment on Staphylococcus aureus and with Pseudomonas aeruginosa was greater than 64 µg/mL each time.

With `O=C(CCCCCN1C(=O)c2cccc3cccc(c23)C1=O)NNc1ccccc1`, the MIC in the experiment with Escherichia coli is greater than 64 µg/mL; in the experiment with Acinetobacter baumannii it was 8 µg/mL (≈ 19.9 µM); with Klebsiella pneumoniae, greater than 64 µg/mL; in the experiment on Staphylococcus aureus, greater than 64 µg/mL; in the experiment on Pseudomonas aeruginosa, greater than 64 µg/mL.

`NC[C@H]1O[C@H](O[C@H]2[C@H](O)[C@@H](O[C@H]3O[C@H](CO)[C@@H](O)[C@H](N)[C@H]3O)[C@H](N)C[C@@H]2N)[C@H](N)C[C@@H]1O` [TOBRAMYCIN]: the MIC with Acinetobacter baumannii was 4 µg/mL (≈ 8.56 µM).
